# Assay results published in patent US6689362B1, “Method for treating T-lineage leukemias and lymphomas using a CD7-specific monoclonal antibody (TXU-7) linked to the pokeweed antiviral protein (PAP)” (priority 1997, dated 2004).
# Several values for one entry are separate records, joined by “and”; a condition that tells them apart may be missing. Equal values may be shown once.
# Tested on: clinical HIV-1 isolates (AT-101, AT-328, AT-332)
# Assay: Hu-PBL-SCID mouse model of human AIDS (HIV-PCR and HIV-culture)
# Format: in vivo
# [1] = 1 mg/ml in water, average 200 mg/kg/day
smiles,measurement,setting,value
"Cc1cn([C@H]2C[C@H](N=[N+]=[N-])[C@@H](CO)O2)c(=O)[nH]c1=O [AZT, zidovudine]",Cx+,[1],4/8
same,PCR+,[1],4/10
same,PCR+ Cx+,[1],4 and 4/8
same,PCR+ CxND,[1],0/2
same,PCR+ Cx−,[1],3 and 4/8
same,PCR− Cx−,[1],0/8
same,mice tested HIV-1 negative,[1],3 of 10
same,gp120 on CD7 cells from peritoneal cavities (flow cytometry),treated Hu-PBL-SCID mice,presence of gp120 on CD7 cells
